This note sets out measurements from ChEMBL document CHEMBL2346614, “Discovery of thienopyrimidine-based inhibitors of the human farnesyl pyrophosphate synthase--parallel synthesis of analogs via a trimethylsilyl ylidene intermediate” (Bioorg Med Chem, 2013).

Molecules are shown by their SMILES. Some results are limits rather than exact numbers.

For assay [1], the target named is T1, Farnesyl pyrophosphate synthase (Homo sapiens) (UniProt P14324).
T1 sequence (whole entry): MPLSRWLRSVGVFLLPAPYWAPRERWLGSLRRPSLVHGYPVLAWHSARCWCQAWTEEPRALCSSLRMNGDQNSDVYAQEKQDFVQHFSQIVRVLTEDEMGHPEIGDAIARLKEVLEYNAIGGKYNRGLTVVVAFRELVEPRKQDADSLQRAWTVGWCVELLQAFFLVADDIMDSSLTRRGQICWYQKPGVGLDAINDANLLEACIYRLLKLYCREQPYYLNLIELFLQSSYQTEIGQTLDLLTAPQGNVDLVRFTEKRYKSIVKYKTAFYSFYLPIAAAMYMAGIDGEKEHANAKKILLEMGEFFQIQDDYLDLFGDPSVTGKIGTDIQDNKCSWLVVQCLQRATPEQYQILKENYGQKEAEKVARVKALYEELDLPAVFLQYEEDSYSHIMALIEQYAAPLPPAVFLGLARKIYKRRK
The assay is described as follows: Inhibition of human recombinant N-terminal His6-tagged FPPS transfected in Escherichia coli BL21 (DE3) cells using GPP and [3H]-IPP as substrate at 10 uM incubated for 10 mins prior to substrate addition measured after 20 mins by liquid scintillation counting analysis. It counts as biochemical.

Assay [2] has as its target T2, Farnesyl pyrophosphate synthase (Homo sapiens, UniProt P14324).
T2 sequence (P14324 whole entry): T1 sequence (whole entry)
The assay is described as follows: Inhibition of human recombinant N-terminal His6-tagged FPPS transfected in Escherichia coli BL21 (DE3) cells using GPP and [3H]-IPP as substrate incubated for 10 mins prior to substrate addition measured after 20 mins by liquid scintillation counting analysis.

Assay [3] addresses T2, Farnesyl pyrophosphate synthase. The assay is described as follows: Inhibition of human FPPS.

As a reminder, the inhibition is the change of the read-out against control, counted positive when it falls. As for `O=P(O)(O)C(Nc1ncnc2sc(-c3ccccc3)cc12)P(=O)(O)O`, the inhibition in assay [1] is 75%.

By IC50 is commonly meant the midpoint of a concentration-inhibition curve. As for `Cc1ccc(-c2cc3c(NC(P(=O)(O)O)P(=O)(O)O)ncnc3s2)cc1`, the IC50 in assay [2] came out at 390 nM.

For `O=P(O)(O)C(Nc1ncnc2sc(-c3ccc4ccccc4c3)cc12)P(=O)(O)O`, the IC50 in assay [2] is 250 nM.

On to `O=P(O)(O)C(Nc1ncnc2scc(-c3ccccc3)c12)P(=O)(O)O`, for which the inhibition in assay [1] is less than 20%.

Turning to `CC(C)=CCC/C(C)=C/CC(C/C=C(\C)CCC=C(C)C)(P(=O)(O)O)P(=O)(O)O` [DIGERANYL BISPHOSPHONATE], the IC50 in assay [3] is more than 10000 nM.

With `O=P(O)(O)C(Nc1nc(-c2ccccc2)nc2sccc12)P(=O)(O)O`, in assay [1], the inhibition turned out to be 75%.

Turning to `O=P(O)(O)C(Nc1ncnc2sccc12)P(=O)(O)O`, the inhibition in assay [1] is 75%.
